In the CheMixHub drug solubility set:

Assay: xn = mol fraction of the nth substance listed, in the solute-free solvent

O=C(O)c1ccc(C(=O)O)o1 + C1CCOC1 + O
solubility (g/100 g solution)
Conditions | 293.15 K | 298.15 K | 303.15 K | 308.15 K | 313.15 K | 318.15 K | 323.15 K | 328.15 K | 333.15 K
x2 = 0.1 | 1.53 | 1.63 | 1.73 | 1.9 | 2.08 | 2.35 | 2.63 | 2.88 | 3.15
x2 = 0.2 | 3.7 | 3.93 | 4.22 | 4.48 | 4.77 | 5.08 | 5.38 | 5.73 | 6.11
x2 = 0.3 | 4.89 | 5.24 | 5.6 | 5.94 | 6.31 | 6.69 | 7.1 | 7.45 | 7.84
x2 = 0.4 | 6.39 | 6.62 | 6.87 | 7.22 | 7.6 | 7.91 | 8.25 | 8.62 | 9.02
x2 = 0.5 | 6.7 | 6.95 | 7.21 | 7.48 | 7.76 | 8.1 | 8.47 | 8.86 | 9.32
x2 = 0.6 | 6.58 | 6.9 | 7.24 | 7.5 | 7.81 | 8.16 | 8.54 | 9.01 | 9.52
x2 = 0.7 | 6.04 | 6.39 | 6.76 | 7.09 | 7.43 | 7.77 | 8.14 | 8.5 | 8.9
x2 = 0.8 | 4.95 | 5.3 | 5.68 | 5.96 | 6.26 | 6.51 | 6.79 | 7.11 | 7.47
x2 = 0.9 | 3.55 | 3.67 | 3.81 | 3.98 | 4.16 | 4.33 | 4.51 | 4.74 | 4.98

Oc1ccc(Cl)c2cccnc12 + C1COCCO1 + CCO
solubility (g/100 g solution)
Conditions | 278.15 K | 283.15 K | 288.15 K | 293.15 K | 298.15 K | 303.15 K | 308.15 K | 313.15 K | 318.15 K | 323.15 K
x2 = 0.1156 | 2.02 | 2.27 | 2.73 | 3.17 | 3.66 | 4.34 | 5.1 | 5.96 | 7.04 | 8.35
x2 = 0.2585 | 3.35 | 3.86 | 4.46 | 5.19 | 6.15 | 7.28 | 8.38 | 9.82 | 11.4 | 13.3
x2 = 0.4396 | 4.92 | 5.68 | 6.53 | 7.56 | 8.72 | 10.3 | 11.9 | 13.8 | 15.9 | 18.2
x2 = 0.6765 | 6.81 | 7.83 | 8.96 | 10.3 | 11.8 | 13.8 | 15.8 | 17.9 | 20.5 | 23.3

O=C(O)c1ccc(C(=O)O)o1 + C1COCCO1 + O
solubility (g/100 g solution)
Conditions | 303.15 K | 308.15 K | 313.15 K | 318.15 K | 323.15 K | 328.15 K | 333.15 K | 338.15 K | 343.15 K
x2 = 0.1 | 1.85 | 1.98 | 2.15 | 2.38 | 2.63 | 2.92 | 3.24 | 3.48 | 3.73
x2 = 0.2 | 3.44 | 3.54 | 3.81 | 4.02 | 4.28 | 4.56 | 4.78 | 5.12 | 5.5
x2 = 0.3 | 3.8 | 4.14 | 4.34 | 4.76 | 5.21 | 5.62 | 6.07 | 6.46 | 7.05
x2 = 0.4 | 4.76 | 5.23 | 5.55 | 5.79 | 6.04 | 6.37 | 6.72 | 7.27 | 7.87
x2 = 0.5 | 4.37 | 4.77 | 5.03 | 5.38 | 5.75 | 6.1 | 6.48 | 6.97 | 7.5
x2 = 0.6 | 3.77 | 4.11 | 4.39 | 4.66 | 5 | 5.3 | 5.63 | 6.04 | 6.44
x2 = 0.7 | 3.03 | 3.32 | 3.51 | 3.71 | 3.94 | 4.25 | 4.48 | 4.89 | 5.36
x2 = 0.8 | 2.38 | 2.62 | 2.75 | 2.96 | 3.11 | 3.32 | 3.55 | 3.81 | 4.1
x2 = 0.9 | 1.3 | 1.42 | 1.54 | 1.73 | 1.93 | 2.11 | 2.35 | 2.61 | 2.87

O=C(O)c1cc([N+](=O)[O-])ccc1O + CC#N + O
solubility (g/100 g solution)
Conditions | 278.15 K | 283.15 K | 288.15 K | 293.15 K | 298.15 K | 303.15 K | 308.15 K | 313.15 K | 318.15 K | 323.15 K
x2 = 0.04651 | 0.16 | 0.194 | 0.238 | 0.291 | 0.357 | 0.446 | 0.552 | 0.685 | 0.838 | 1.03
x2 = 0.0989 | 0.399 | 0.59 | 0.782 | 0.967 | 1.18 | 1.42 | 1.71 | 2.02 | 2.34 | 2.73
x2 = 0.1583 | 1.06 | 1.33 | 1.68 | 2.11 | 2.54 | 3.11 | 3.71 | 4.38 | 5.16 | 6.05
x2 = 0.2264 | 2.36 | 2.8 | 3.34 | 4.03 | 4.74 | 5.57 | 6.57 | 7.63 | 8.9 | 10.3
x2 = 0.3051 | 3.97 | 4.82 | 5.77 | 6.86 | 8.19 | 9.58 | 11.1 | 12.7 | 14.5 | 16.6
x2 = 0.397 | 7.03 | 7.9 | 8.98 | 10.4 | 11.9 | 13.8 | 15.9 | 18.1 | 20.2 | 22.5
x2 = 0.506 | 9.09 | 10.3 | 11.8 | 13.6 | 15.5 | 17.5 | 19.6 | 21.8 | 23.9 | 26.2
x2 = 0.6372 | 10.7 | 11.8 | 13.5 | 15.5 | 17.8 | 19.9 | 21.9 | 24.7 | 26.9 | 28.9
x2 = 0.798 | 12 | 13.3 | 15 | 17.2 | 19.5 | 21.5 | 24.3 | 26.8 | 29.3 | 31.8

COC1=CC(=O)CC(C)C12Oc1c(Cl)c(OC)cc(OC)c1C2=O (stereo not drawn) + CC(=O)CC(C)C + CC(C)O
solubility (g/100 g solution)
Conditions | 283.15 K | 288.15 K | 293.15 K | 298.15 K | 303.15 K | 308.15 K | 313.15 K | 318.15 K | 323.15 K
x2 = 0.1 | 0.154 | 0.185 | 0.226 | 0.307 | 0.335 | 0.47 | 0.53 | 0.62 | 0.76
x2 = 0.2 | 0.251 | 0.304 | 0.345 | 0.441 | 0.514 | 0.683 | 0.713 | 0.852 | 1.01
x2 = 0.3 | 0.353 | 0.405 | 0.473 | 0.568 | 0.67 | 0.869 | 0.938 | 1.11 | 1.3
x2 = 0.4 | 0.433 | 0.519 | 0.591 | 0.73 | 0.812 | 1.04 | 1.09 | 1.27 | 1.46
x2 = 0.5 | 0.533 | 0.589 | 0.688 | 0.841 | 0.939 | 1.19 | 1.23 | 1.42 | 1.62
x2 = 0.6 | 0.595 | 0.655 | 0.751 | 0.902 | 1.03 | 1.27 | 1.33 | 1.5 | 1.72
x2 = 0.7 | 0.642 | 0.758 | 0.833 | 0.943 | 1.08 | 1.31 | 1.37 | 1.58 | 1.77
x2 = 0.8 | 0.675 | 0.753 | 0.823 | 0.973 | 1.1 | 1.33 | 1.39 | 1.59 | 1.79
x2 = 0.9 | 0.675 | 0.727 | 0.817 | 0.955 | 1.1 | 1.29 | 1.35 | 1.51 | 1.68

CC(=O)OC(c1ccccc1)C(Cl)(Cl)Cl (stereo not drawn) + CC(=O)O + O
solubility (g/100 g solution)
Conditions | 288.15 K | 293.15 K | 298.15 K | 303.15 K | 308.15 K | 313.15 K | 318.15 K | 323.15 K | 328.15 K
x2 = 0.4 | 0.229 | 0.34 | 0.495 | 0.65 | 0.966 | 1.43 | 1.81 | 2.64 | 3.12
x2 = 0.5 | 0.758 | 0.967 | 1.23 | 1.62 | 2.27 | 2.97 | 3.85 | 5.28 | 7.16
x2 = 0.6 | 1.45 | 2.06 | 2.67 | 3.47 | 4.47 | 5.57 | 7.52 | 10.1 | 13.4
x2 = 0.7 | 2.88 | 3.73 | 4.74 | 6.03 | 7.75 | 9.86 | 12.5 | 16.9 | 23.4
x2 = 0.8 | 4.78 | 6.15 | 7.58 | 9.47 | 12 | 15.1 | 19.5 | 25.6 | 33.9
x2 = 0.9 | 7.43 | 9.03 | 10.9 | 13.5 | 17 | 21.2 | 26.5 | 33.8 | 42.7

COC1=CC(=O)CC(C)C12Oc1c(Cl)c(OC)cc(OC)c1C2=O (stereo not drawn) + CC(C)=O + CC(C)O
solubility (g/100 g solution)
Conditions | 283.15 K | 288.15 K | 293.15 K | 298.15 K | 303.15 K | 308.15 K | 313.15 K | 318.15 K | 323.15 K
x2 = 0.1 | 0.176 | 0.236 | 0.261 | 0.31 | 0.375 | 0.463 | 0.602 | 0.688 | 0.843
x2 = 0.2 | 0.338 | 0.422 | 0.511 | 0.55 | 0.668 | 0.817 | 0.967 | 1.11 | 1.3
x2 = 0.3 | 0.587 | 0.663 | 0.787 | 0.871 | 1.04 | 1.22 | 1.41 | 1.64 | 1.96
x2 = 0.4 | 0.84 | 0.915 | 1.06 | 1.23 | 1.44 | 1.7 | 1.94 | 2.17 | 2.51
x2 = 0.5 | 1.23 | 1.4 | 1.5 | 1.62 | 1.85 | 2.16 | 2.51 | 2.8 | 3.19
x2 = 0.6 | 1.56 | 1.76 | 1.94 | 2.08 | 2.34 | 2.72 | 3.08 | 3.41 | 3.89
x2 = 0.7 | 1.81 | 2.09 | 2.35 | 2.55 | 2.87 | 3.3 | 3.65 | 4.05 | 4.58
x2 = 0.8 | 2.16 | 2.39 | 2.72 | 2.95 | 3.38 | 3.76 | 4.19 | 4.67 | 5.21
x2 = 0.9 | 2.56 | 2.71 | 3.08 | 3.33 | 3.78 | 4.3 | 4.68 | 5.15 | 5.53
